One molecule from PMC8005217, “Unravelling Regioselectivity of Leuconostoc citreum ABK-1 Alternansucrase by Acceptor Site Engineering” (International Journal of Molecular Sciences, 2021) can be followed below.

Common to all, as to assay: DNS reducing sugar assay (total activity)
Holding throughout (assay type): biochemical
Holding throughout (settings): 0–368 mM sucrose, 50 mM sodium citrate pH 4.0, 40 °C, read-out: Km or k

Assay [1] concerns the target T1, LcALT (truncated Leuconostoc citreum ABK-1 alternansucrase, pETΔ7SH, WT) (Leuconostoc citreum, UniProt A0A2H4A2Q1, W554L, form not given).
T1 construct: gene asr; pET19b via NcoI/XhoI, purified recombinant; exact borders and tags only in cited earlier work
The source says: (§1) DNS reducing sugar assay (total activity) on LcALT (truncated Leuconostoc citreum ABK-1 alternansucrase, pETΔ7SH, WT)

In assay [2] the target is T2, LcALT (truncated Leuconostoc citreum ABK-1 alternansucrase, pETΔ7SH, WT) (Leuconostoc citreum, UniProt A0A2H4A2Q1, W554A, form not given).
T2 construct: gene asr; pET19b via NcoI/XhoI, purified recombinant; exact borders and tags only in cited earlier work
From the text: as §1

The target in assay [3] is T3, LcALT (truncated Leuconostoc citreum ABK-1 alternansucrase, pETΔ7SH, WT) (Leuconostoc citreum, UniProt A0A2H4A2Q1, W554S, form not given).
T3 construct: gene asr; pET19b via NcoI/XhoI, purified recombinant; exact borders and tags only in cited earlier work
From the text: as §1

The target in assay [4] is T4, LcALT (truncated Leuconostoc citreum ABK-1 alternansucrase, pETΔ7SH, WT) (Leuconostoc citreum, UniProt A0A2H4A2Q1, W554Y, form not given).
T4 construct: gene asr; pET19b via NcoI/XhoI, purified recombinant; exact borders and tags only in cited earlier work
From the text: as §1

The target in assay [5] is T5, LcALT (truncated Leuconostoc citreum ABK-1 alternansucrase, pETΔ7SH, WT) (Leuconostoc citreum, UniProt A0A2H4A2Q1, W554I, form not given).
T5 construct: gene asr; pET19b via NcoI/XhoI, purified recombinant; exact borders and tags only in cited earlier work
From the text: as §1

For assay [6], the target named is T6, LcALT (truncated Leuconostoc citreum ABK-1 alternansucrase, pETΔ7SH, WT) (Leuconostoc citreum, UniProt A0A2H4A2Q1, W554F, form not given).
T6 construct: gene asr; pET19b via NcoI/XhoI, purified recombinant; exact borders and tags only in cited earlier work
From the text: as §1

T3 sequence (A0A2H4A2Q1 entry or part of it W554S, form open): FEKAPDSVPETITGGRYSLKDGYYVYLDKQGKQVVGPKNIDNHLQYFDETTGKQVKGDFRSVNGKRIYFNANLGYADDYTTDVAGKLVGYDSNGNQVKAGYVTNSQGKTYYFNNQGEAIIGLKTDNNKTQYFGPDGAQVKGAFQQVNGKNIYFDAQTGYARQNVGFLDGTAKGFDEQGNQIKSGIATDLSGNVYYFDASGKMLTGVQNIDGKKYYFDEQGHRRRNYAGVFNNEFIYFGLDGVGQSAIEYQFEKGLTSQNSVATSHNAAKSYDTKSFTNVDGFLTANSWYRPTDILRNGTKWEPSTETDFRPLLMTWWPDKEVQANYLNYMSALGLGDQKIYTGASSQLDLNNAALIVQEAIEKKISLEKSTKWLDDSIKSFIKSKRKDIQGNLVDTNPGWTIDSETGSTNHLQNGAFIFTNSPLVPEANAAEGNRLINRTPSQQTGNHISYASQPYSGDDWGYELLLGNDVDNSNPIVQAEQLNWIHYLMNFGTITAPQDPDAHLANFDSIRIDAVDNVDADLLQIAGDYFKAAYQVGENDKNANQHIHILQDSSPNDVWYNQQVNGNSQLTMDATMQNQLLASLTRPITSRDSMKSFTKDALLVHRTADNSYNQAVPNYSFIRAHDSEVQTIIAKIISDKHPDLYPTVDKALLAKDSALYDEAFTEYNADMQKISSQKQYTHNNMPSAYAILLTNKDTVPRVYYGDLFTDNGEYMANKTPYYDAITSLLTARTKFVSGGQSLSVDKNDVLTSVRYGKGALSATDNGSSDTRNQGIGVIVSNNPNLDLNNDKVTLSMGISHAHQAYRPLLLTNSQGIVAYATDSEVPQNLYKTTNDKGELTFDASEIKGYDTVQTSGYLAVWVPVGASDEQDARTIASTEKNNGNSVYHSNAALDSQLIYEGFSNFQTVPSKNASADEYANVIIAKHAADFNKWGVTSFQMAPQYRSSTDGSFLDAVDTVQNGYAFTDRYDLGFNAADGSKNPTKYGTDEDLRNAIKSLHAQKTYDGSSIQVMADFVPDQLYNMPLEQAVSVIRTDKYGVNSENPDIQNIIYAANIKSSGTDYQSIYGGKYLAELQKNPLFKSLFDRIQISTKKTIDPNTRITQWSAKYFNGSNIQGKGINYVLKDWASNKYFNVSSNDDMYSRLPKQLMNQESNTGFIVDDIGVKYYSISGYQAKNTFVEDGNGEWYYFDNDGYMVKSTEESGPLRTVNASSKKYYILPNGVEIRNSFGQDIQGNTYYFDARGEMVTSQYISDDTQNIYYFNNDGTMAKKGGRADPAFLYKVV
T6 sequence (A0A2H4A2Q1 entry or part of it W554F, form open): as the sequence (A0A2H4A2Q1 entry or part of it W554S, form open) above, with S554F counted along it
T5 sequence (A0A2H4A2Q1 entry or part of it W554I, form open): as the sequence (A0A2H4A2Q1 entry or part of it W554S, form open) above, with S554I counted along it
T4 sequence (A0A2H4A2Q1 entry or part of it W554Y, form open): as the sequence (A0A2H4A2Q1 entry or part of it W554S, form open) above, with S554Y counted along it
T1 sequence (A0A2H4A2Q1 entry or part of it W554L, form open): as the sequence (A0A2H4A2Q1 entry or part of it W554S, form open) above, with S554L counted along it
T2 sequence (A0A2H4A2Q1 entry or part of it W554A, form open): as the sequence (A0A2H4A2Q1 entry or part of it W554S, form open) above, with S554A counted along it

A word on the Km: it is the concentration of substrate that gives half-maximal velocity. Take `OC[C@H]1O[C@@](CO)(O[C@H]2O[C@H](CO)[C@@H](O)[C@H](O)[C@H]2O)[C@@H](O)[C@@H]1O` [sucrose]: the Km in assay [1] was 46.4 ± 6 mM; in assay [2], 43 ± 4.7 mM; in assay [3], 63.6 ± 8.3 mM; in assay [4], 14.2 ± 2 mM; in assay [5] it was 53.1 ± 4.6 mM; in assay [6] it was 16.6 ± 2.1 mM.
